Measurements from patent US20160264527A1 (priority 2011, published 2016).
Where a name gives a salt, the structure may show the parent alone. Read-outs that look alike come from different tables or passages of the source.

Tests used:
[1] = test system: DAGL; experiment: Inhibition of DAGL in INS 832/13 β-cell extracts (1,2-dioleoylglycerol hydrolysis, HPLC); assay type: biochemical; conditions: compound at 10 μM; 60 min at 30° C.; 50 μM 1,2-dioleoylglycerol
Protocol: (§1) Both ABHD6 and DAGL enzymes were assayed in a single incubation, with separate substrates. Cell extract, 10 μg was incubated in a final volume of 50 μl with 50 μM 1,2-dioleoylglycerol (substrate for DAGL) and 50 μM 1-palmitoylglycerol (substrate for ABHD6). […] Quantification of oleate and palm itate released gave the activities of DAGL and ABHD6, respectively. Incubations contained indicated compounds at 10 μM (or as shown) concentration. VVWL70 was used as a positive control for ABHD6 inhibition and orlistat (ORL) was used as a control for total lipase inhibition.

[2] = test system: INS832/13 cells; experiment: Insulin secretion from INS832/13 cells, 2-h static incubations; assay type: cell-based; conditions: control 1.95
Protocol: Materials. Cell culture supplies were from Corning (Corning, N.Y.) and Fisherbrand (Canada). VVWL70 was dissolved in dimethylsulfoxide (DMSO) before their use in insulin secretion experiments. Palmitate sodium salt was from Nu-Check Prep (Elysian, Minn.) and bicinchoninic acid protein assay kit from Pierce (Rockford, Ill.) was used. Stock unlabelled palm itate was prepared at 4 mM in 5% defatted BSA as described elsewhere (Roduit et al. Diabetes (2004) 53 pp 1007-1019,).
Cell culture. INS832/13 cells (Hohmeir et al. Diabetes (2000) 49 pp 424-430,) were cultured at 37° C. in a humidified atmosphere containing 5% CO2 in RPMI 1640 with sodium bicarbonate, supplemented with 10% (v/v) fetal calf serum (Wisent), 10 mM HEPES, pH 7.4, 2 mM L-glutamine, 1 mM sodium pyruvate and 50 μM β-mercaptoethanol (complete RPMI). Cells were grown to 80% confluence. Media were changed to RPMI 1640 containing 3 mM glucose supplemented as the complete RPMI 24 h prior to the experiments. Insulin secretion incubations were conducted in Krebs-Ringer bicarbonate buffer containing 10 mM HEPES, pH 7.4 (KRBH).
Insulin secretion measurement. INS832/13 cells were washed in KRBH containing 1 mM glucose and 0.5% defatted BSA (KRBH 1 G/0.5% BSA) and pre-incubated for 45 min in KRBH 1 G/0.5% BSA in presence of pharmacological agents (at indicated concentrations) or vehicle (DMSO). For examining the effect of VVWL70 (an inhibitor of ABHD6), other compounds identified in table 1, and/or orlistat (lipase inhibitor), the compounds were added first in pre-incubation media and then during incubation at 1 to 20 μM concentration (see Table-2) at 2 mM and 10 mM glucose. Insulin secretion from INS832/13 cells was measured from 2-h static incubations in KRBH containing various glucose concentrations, 0.5% defatted BSA and pharmacological agents or vehicle (DMSO), with or without 35 mM KCl or 0.3 mM palm itate, as specified (see Peyot et al., 2009—Adipose Triglyceride Lipase Is Implicated in Fuel- and Non-fuel-stimulated Insulin Secretion—J Biol Chem, 284: pp. 16848-16859). The experiments were done 3 times, with triplicates of each measurement.

[3] = target: T1, ABHD6 (Rattus norvegicus, UniProt Q5XI64); experiment: biochemical; conditions: read-out: ABHD6 Inhibition %
T1 construct: INS 832/13 β-cell extracts (whole cell) were prepared by sonication; endogenous in cells; host or cells: INS 832/13 β-cells, whole-cell extract
T1 sequence (Q5XI64 1-337): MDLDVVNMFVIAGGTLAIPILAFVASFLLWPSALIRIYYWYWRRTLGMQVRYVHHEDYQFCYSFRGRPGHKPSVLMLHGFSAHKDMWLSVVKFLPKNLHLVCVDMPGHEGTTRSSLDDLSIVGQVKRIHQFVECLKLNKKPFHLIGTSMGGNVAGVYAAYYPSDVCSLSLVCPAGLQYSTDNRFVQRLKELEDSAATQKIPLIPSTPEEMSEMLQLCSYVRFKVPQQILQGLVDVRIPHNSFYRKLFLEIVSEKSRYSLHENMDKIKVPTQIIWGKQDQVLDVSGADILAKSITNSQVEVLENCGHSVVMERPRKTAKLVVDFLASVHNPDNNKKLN
Protocol: as §1

[4] = test system: CD1 strain mice; experiment: Oral glucose tolerance test (OGTT) in streptozotocin-induced mildly diabetic mice; assay type: in vivo; conditions: 5 mg/kg intraperitoneally daily for three days prior to OGTT; glucose 2 g/kg by gavage; versus vehicle; FIGS. 1 and 2
Protocol: In this experiment—CD1 strain mice were injected once with streptozotocin (100 mg/kg body wt) to induce mild diabetes. After 4 weeks, the mice were fasted overnight and oral glucose tolerance test (OGTT) was done. Half the animals (5) received ABHD6 inhibitor, VVWL70 for the three days prior to OGTT, daily, intraperitoneally (at 5 mg/kg body weight) and the other half received only vehicle. For OGTT, glucose was given by gavage (2 g/kg body wt), followed by blood collection at indicated time points (on the graph) for the analysis of blood glucose (by glucometer) and plasma insulin (by ELISA).

[5] = compound at 10 μM, 60 min at 30° C., 50 μM 1-palmitoylglycerol

NC(=O)c1ccc(-c2ccc(OC(=O)N(Cc3cccc(-c4ccncc4)c3)c3ccccc3)cc2)cc1 [Compound 3, trifluoroacetate salt]
DAGL Inhibition % [1]: 0%
Insulin secretion (% content) ([2]; compound at 2 μM): 2.00 % content
Insulin secretion (% content) ([2]; compound at 5 μM): 2.10 % content
Insulin secretion (% content) ([2]; compound at 10 μM): 3.05 % content
inhibition at 10 µM [3, 5]: 90%

CN(Cc1cccc(-c2ccncc2)c1)C(=O)Oc1ccc(-c2ccc(C(=O)NC3CC3)cc2)cc1 [Compound 5, 4′-(Cyclopropylcarbamoyl)biphenyl-4-yl N-methyl-N-(3-(pyridin-4-yl)benzyl)carbamate]
DAGL Inhibition % [1]: 10%
Insulin secretion (% content) ([2]; compound at 2 μM): 2.01 % content
Insulin secretion (% content) ([2]; compound at 5 μM): 2.05 % content
Insulin secretion (% content) ([2]; compound at 10 μM): 3.56 % content
inhibition at 10 µM [3]: 60%

CNC(=O)c1ccc(-c2ccc(OC(=O)N(C)Cc3cccc(-c4ccncc4)c3)cc2)cc1 [Compound 2, 4′-(Methylcarbamoyl)biphenyl-4-yl N-methyl-N-(3-(pyridin-4-yl)benzyl)carbamate]
DAGL Inhibition % [1]: 0%
Insulin secretion (% content) ([2]; compound at 2 μM): 2.25 % content
Insulin secretion (% content) ([2]; compound at 5 μM): 3.70 % content
Insulin secretion (% content) ([2]; compound at 10 μM): 6.08 % content
inhibition at 10 µM [3]: 98%

CNC(=O)c1ccc(-c2ccc(OC(=O)N(Cc3cccc(-c4ccncc4)c3)C(C)C)cc2)cc1 [Compound 6, 4′-(Methylcarbamoyl)biphenyl-4-yl N-i-propyl-N-(3-(pyridin-4-yl)benzyl)carbamate]
DAGL Inhibition % [1]: 0%
Insulin secretion (% content) ([2]; compound at 2 μM): 3.10 % content
Insulin secretion (% content) ([2]; compound at 5 μM): 3.98 % content
Insulin secretion (% content) ([2]; compound at 10 μM): 5.88 % content
inhibition at 10 µM [3, 5]: 95%

CNC(=O)c1ccc(-c2ccc(OC(=O)N(C)Cc3cccc(-c4ccccc4)c3)cc2)cc1 [Compound 4, 4′-(Methylcarbamoyl)biphenyl-4-yl N-methyl-N-(3-phenylbenzyl)carbamate]
DAGL Inhibition % [1]: 0%
Insulin secretion (% content) ([2]; compound at 2 μM): 3.05 % content
Insulin secretion (% content) ([2]; compound at 5 μM): 3.65 % content
Insulin secretion (% content) ([2]; compound at 10 μM): 3.82 % content
inhibition at 10 µM [3]: 70%

CN(Cc1cccc(-c2ccncc2)c1)C(=O)Oc1ccc(-c2ccc(C(N)=O)cc2)cc1 [Compound 1, reference compound]
blood glucose control in OGTT [4]: able to control their blood glucose levels better than the mice which were given vehicle
plasma insulin levels in OGTT [4]: increase in plasma insulin levels
Insulin secretion (% content) ([2]; compound at 2 μM): 3.22 % content
Insulin secretion (% content) ([2]; compound at 5 μM): 3.97 % content
Insulin secretion (% content) ([2]; compound at 10 μM): 6.03 % content
